Source: PubChem BioAssay (NCI)
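Compound exposure: 48 hours, 5 concentrations, 96-well plates. The concentration for 50% growth inhibition is given as GI50. TGI marks complete inhibition of growth.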

Tests used:
Test in all cases: growth of human tumour cells (NCI), 48 h
HCT-15 colon = tested on: HCT-15 colon
SF-295 CNS = tested on: SF-295 CNS
MCF7 breast = tested on: MCF7 breast
NCI-H226 lung = tested on: NCI-H226 lung
LOX IMVI melanoma = tested on: LOX IMVI melanoma
M14 melanoma = tested on: M14 melanoma
SR leukemia = tested on: SR leukemia
U251 CNS = tested on: U251 CNS
MOLT-4 leukemia = tested on: MOLT-4 leukemia
MALME-3M melanoma = tested on: MALME-3M melanoma
CCRF-CEM leukemia = tested on: CCRF-CEM leukemia
HT29 colon = tested on: HT29 colon
SN12C renal = tested on: SN12C renal
SK-MEL-2 melanoma = tested on: SK-MEL-2 melanoma
HS 578T breast = tested on: HS 578T breast
UO-31 renal = tested on: UO-31 renal
SK-OV-3 ovarian = tested on: SK-OV-3 ovarian
SNB-19 CNS = tested on: SNB-19 CNS
DU-145 prostate = tested on: DU-145 prostate
RXF 393 renal = tested on: RXF 393 renal
A549 NSCLC = tested on: A549 NSCLC
HCT-116 colon = tested on: HCT-116 colon
HL-60(TB) leukemia = tested on: HL-60(TB) leukemia
OVCAR-4 ovarian = tested on: OVCAR-4 ovarian
SNB-75 CNS = tested on: SNB-75 CNS
MDA-MB-435 = tested on: MDA-MB-435
SF-539 CNS = tested on: SF-539 CNS
RPMI-8226 leukemia = tested on: RPMI-8226 leukemia
SK-MEL-5 melanoma = tested on: SK-MEL-5 melanoma
UACC-257 melanoma = tested on: UACC-257 melanoma
TK-10 renal = tested on: TK-10 renal
HOP-62 NSCLC = tested on: HOP-62 NSCLC
ACHN renal = tested on: ACHN renal
NCI-H460 lung = tested on: NCI-H460 lung
EKVX NSCLC = tested on: EKVX NSCLC
HOP-92 NSCLC = tested on: HOP-92 NSCLC
COLO 205 colon = tested on: COLO 205 colon
MDA-MB-231 breast = tested on: MDA-MB-231 breast
NCI/ADR-RES ovarian = tested on: NCI/ADR-RES ovarian
HCC-2998 colon = tested on: HCC-2998 colon
OVCAR-5 ovarian = tested on: OVCAR-5 ovarian
SK-MEL-28 melanoma = tested on: SK-MEL-28 melanoma
NCI-H522 lung = tested on: NCI-H522 lung
UACC-62 melanoma = tested on: UACC-62 melanoma
K-562 leukemia = tested on: K-562 leukemia
T-47D breast = tested on: T-47D breast
OVCAR-3 ovarian = tested on: OVCAR-3 ovarian
BT-549 breast = tested on: BT-549 breast
A498 renal = tested on: A498 renal
786-0 renal = tested on: 786-0 renal
IGROV1 ovarian = tested on: IGROV1 ovarian
KM12 colon = tested on: KM12 colon
PC-3 prostate = tested on: PC-3 prostate
OVCAR-8 ovarian = tested on: OVCAR-8 ovarian
SW-620 colon = tested on: SW-620 colon
SF-268 CNS = tested on: SF-268 CNS
NCI-H23 lung = tested on: NCI-H23 lung

Cn1ncc(NC(=O)c2nc(-c3c(F)cccc3F)sc2N)c1N1CC[C@@H](N)[C@H](F)CC1
GI50 (HCT-15 colon): 3.86 µM
TGI (HCT-15 colon): 28.7 µM
GI50 (SF-295 CNS): 8.75 µM
TGI (SF-295 CNS): 24 µM
GI50 (MCF7 breast): 2.8 µM
TGI (MCF7 breast): 13.9 µM
GI50 (NCI-H226 lung): 1.74 µM
TGI (NCI-H226 lung): 27 µM
GI50 (LOX IMVI melanoma): 5.71 µM
TGI (LOX IMVI melanoma): 21 µM
GI50 (M14 melanoma): 3.03 µM
TGI (M14 melanoma): 18.5 µM
GI50 (SR leukemia): 2.37 µM
TGI (SR leukemia): 25 µM
GI50 (U251 CNS): 8.54 µM
TGI (U251 CNS): 23.9 µM
GI50 (MOLT-4 leukemia): 3.54 µM
TGI (MOLT-4 leukemia): 30.5 µM
GI50 (MALME-3M melanoma): 5.18 µM
TGI (MALME-3M melanoma): 21 µM
GI50 (CCRF-CEM leukemia): 4.55 µM
TGI (CCRF-CEM leukemia): > 100 µM
GI50 (HT29 colon): 5.58 µM
TGI (HT29 colon): 27.5 µM
GI50 (SN12C renal): 3.69 µM
TGI (SN12C renal): 43.3 µM
GI50 (SK-MEL-2 melanoma): 3.45 µM
TGI (SK-MEL-2 melanoma): 13.5 µM
GI50 (HS 578T breast): 2.99 µM
TGI (HS 578T breast): 14.8 µM
GI50 (UO-31 renal): 1.24 µM
TGI (UO-31 renal): 5.67 µM
GI50 (SK-OV-3 ovarian): 1.42 µM
TGI (SK-OV-3 ovarian): 6 µM
GI50 (SNB-19 CNS): 26.3 µM
TGI (SNB-19 CNS): 86.5 µM
GI50 (DU-145 prostate): 5.19 µM
TGI (DU-145 prostate): 42.6 µM
GI50 (RXF 393 renal): 2.98 µM
TGI (RXF 393 renal): 15.3 µM
GI50 (A549 NSCLC): 4.83 µM
TGI (A549 NSCLC): 25.6 µM
GI50 (HCT-116 colon): 4.33 µM
TGI (HCT-116 colon): 60.3 µM
GI50 (HL-60(TB) leukemia): 4.22 µM
TGI (HL-60(TB) leukemia): 17.3 µM
GI50 (OVCAR-4 ovarian): 4.17 µM
TGI (OVCAR-4 ovarian): 44.3 µM
GI50 (SNB-75 CNS): 1.06 µM
TGI (SNB-75 CNS): 8.83 µM
GI50 (MDA-MB-435): 3.61 µM
TGI (MDA-MB-435): 19.4 µM
GI50 (SF-539 CNS): 3.85 µM
TGI (SF-539 CNS): 15.3 µM
GI50 (RPMI-8226 leukemia): 2.54 µM
TGI (RPMI-8226 leukemia): 29.3 µM
GI50 (SK-MEL-5 melanoma): 4.77 µM
TGI (SK-MEL-5 melanoma): 17.8 µM
GI50 (UACC-257 melanoma): 14.4 µM
TGI (UACC-257 melanoma): 30.6 µM
GI50 (TK-10 renal): 2.81 µM
TGI (TK-10 renal): 41.7 µM
GI50 (HOP-62 NSCLC): 3.56 µM
TGI (HOP-62 NSCLC): 22.8 µM
GI50 (ACHN renal): 2.67 µM
TGI (ACHN renal): 16.7 µM
GI50 (NCI-H460 lung): 5.02 µM
TGI (NCI-H460 lung): 21.2 µM
GI50 (EKVX NSCLC): 2.95 µM
TGI (EKVX NSCLC): 50.7 µM
GI50 (HOP-92 NSCLC): 4.12 µM
TGI (HOP-92 NSCLC): 31.3 µM
GI50 (COLO 205 colon): 3.33 µM
TGI (COLO 205 colon): 16.7 µM
GI50 (MDA-MB-231 breast): 6.93 µM
TGI (MDA-MB-231 breast): 31 µM
GI50 (NCI/ADR-RES ovarian): 20.5 µM
TGI (NCI/ADR-RES ovarian): > 89.8 µM
GI50 (HCC-2998 colon): 14.2 µM
TGI (HCC-2998 colon): 35.2 µM
GI50 (OVCAR-5 ovarian): 16.5 µM
TGI (OVCAR-5 ovarian): 54.6 µM
GI50 (SK-MEL-28 melanoma): 10.4 µM
TGI (SK-MEL-28 melanoma): 25.6 µM
GI50 (NCI-H522 lung): 2.67 µM
TGI (NCI-H522 lung): 14.9 µM
GI50 (UACC-62 melanoma): 5.33 µM
TGI (UACC-62 melanoma): 25.2 µM
GI50 (K-562 leukemia): 3.45 µM
TGI (K-562 leukemia): 28 µM
GI50 (T-47D breast): 3.34 µM
TGI (T-47D breast): 34.2 µM
GI50 (OVCAR-3 ovarian): 11.1 µM
TGI (OVCAR-3 ovarian): 31.3 µM
GI50 (BT-549 breast): 2.39 µM
TGI (BT-549 breast): 16.5 µM
GI50 (A498 renal): 1.17 µM
TGI (A498 renal): 7.55 µM
GI50 (786-0 renal): 3.75 µM
TGI (786-0 renal): 20.8 µM
GI50 (IGROV1 ovarian): 2.88 µM
TGI (IGROV1 ovarian): 19.8 µM
GI50 (KM12 colon): 12.4 µM
TGI (KM12 colon): 54.1 µM
GI50 (PC-3 prostate): 3.6 µM
TGI (PC-3 prostate): 32 µM
GI50 (OVCAR-8 ovarian): 8.65 µM
TGI (OVCAR-8 ovarian): 37.1 µM
GI50 (SW-620 colon): 3.65 µM
TGI (SW-620 colon): 24.8 µM
GI50 (SF-268 CNS): 3.27 µM
TGI (SF-268 CNS): 32.6 µM
GI50 (NCI-H23 lung): 11.4 µM
TGI (NCI-H23 lung): 34.4 µM
